Test [1] relates to β-D-ribofuranosidase negative strains. In words: Further substrates on agar plates, colony appearance. In kind it is cell-based. The procedure:
(§1) The chromogenic β-D-ribofuranoside substrate was added to Columbia agar at a substrate concentration of 300 mg/l. Ferric ammonium citrate was included at 500 mg/l. All ingredients were autoclaved at 116° C. for 20 minutes to ensure sterilisation. Agar plates were then prepared in 90 mm petri dishes. The substrate caused a yellow colouration of the agar.
(§2) For each strain tested, a bacterial suspension was prepared in sterile deionised water at an inoculum of approximately 1.5×10^8 colony forming units per ml. This was achieved using a densitometer. 1 μl of each bacterial suspension was then inoculated onto each plate using a multipoint inoculator. Strains were inoculated in parallel onto Columbia agar containing ferric ammonium citrate with no substrate (negative control).
(§3) After 18 hours incubation, strains were examined visually for the presence of colour. Any strains producing a black colouration on substrate containing media but not on the negative control plates were deemed to be hydrolysing the substrate.
(§4) The same evaluation method as described above in Example 2 was utilised.

Test [2] has as its system β-D-ribofuranosidase positive strains. Described as above. In kind it is cell-based. How it is done: as §1, §2, §3, §4
The target in test [3] is AMP nucleosidase (Escherichia coli, UniProt P0AE12). The following applies: N-ribohydrolase from E. coli, AMP nucleosidase (Schramm et al, WO97/31008); cited from earlier work.
Test [4] deals with E. coli. In words: Hydrolysis on Columbia agar with ferric ammonium citrate. The class given is cell-based. The conditions noted are these: E. coli; weaker reaction. The procedure:
as §1, §2, §3

The test system of test [5] is E. aerogenes. The test is described as above. The following applies: E. aerogenes; weaker reaction. In kind it is cell-based. How it is done:
as §1, §2, §3

For test [6], the system named is K. pneumoniae. The description is as above. In kind it is cell-based. The conditions noted are these: K. pneumoniae. The procedure: as §1, §2, §3
The subject of test [7] is Shigella sonnei. Described as above. The class given is cell-based. The following applies: S. sonnei. The procedure:
as §1, §2, §3

Test [8] has as its system E. coli. Briefly: Evaluation with metal salts forming chelates, colour of colonies. The class given is cell-based. The procedure:
as §1, §2, §3
(§5) The substrate was evaluated using the general method of example 2 but using a range of different metal salts and a culture of E. coli alone. The metal salts shown in Table 5, below, were used at a concentration of 500 mg/l.

Test [9] concerns E. coli. In words: Aluminium salt-containing medium with mixed culture. The class given is cell-based. The following applies: mixed culture of E. coli and Yersinia enterocolitica. The procedure: as §5
(§6) When the aluminium salt-containing medium was used with a mixed culture of E. coli and Yersinia enterocolitica, the E. coli colonies were bright yellow and stood out very clearly.

Test [10] relates to Yersinia enterocolitica. The test is described as above. In kind it is cell-based. The conditions noted are these: mixed culture of E. coli and Yersinia enterocolitica. The procedure: as §5, §6

Counter-ions that a name gives are not always drawn.

Sequence of AMP nucleosidase (P0AE12 whole entry): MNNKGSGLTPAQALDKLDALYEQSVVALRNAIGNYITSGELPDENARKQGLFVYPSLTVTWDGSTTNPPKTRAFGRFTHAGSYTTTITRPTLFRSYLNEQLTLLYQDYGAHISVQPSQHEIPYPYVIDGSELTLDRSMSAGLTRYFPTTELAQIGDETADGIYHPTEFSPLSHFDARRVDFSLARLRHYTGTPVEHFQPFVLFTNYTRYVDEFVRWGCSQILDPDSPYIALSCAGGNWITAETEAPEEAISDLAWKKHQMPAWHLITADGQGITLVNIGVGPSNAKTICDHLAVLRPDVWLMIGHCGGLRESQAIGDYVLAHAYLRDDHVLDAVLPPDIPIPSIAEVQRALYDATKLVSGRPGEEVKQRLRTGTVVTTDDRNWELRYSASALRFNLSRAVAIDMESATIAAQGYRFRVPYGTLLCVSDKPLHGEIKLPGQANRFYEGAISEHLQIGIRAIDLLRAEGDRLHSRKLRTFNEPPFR

In the case of “3,4-Dihydroxybenzaldehydesemicarbazone-4-β-D-ribofuranoside [Example 1.5]”, the Colony appearance entry in test [1] is on record as “cream colonies”; in test [2], “diffuse brown colonies”.

Turning to `O=[N+]([O-])c1ccc(O[C@@H]2O[C@H](COP(=O)(O)O)[C@@H](O)[C@H]2O)cc1` [p-Nitrophenyl β-D-ribofuranoside-5-phosphate], in [3], the Activity as substrate result is “inactive”.

As for `O=Cc1ccc(OC2OC(CO)C(O)C2O)c(O)c1` [Example 1.4, 3,4-Dihydroxybenzaldehyde-4β-D-ribofuranoside sodium salt], the Colony appearance result is “cream colonies” in test [1]; “paler colonies” in test [4]; “paler colonies” in test [5]; “Dark brown colonies” in test [6]; “Dark brown colonies” in test [7].

As to `COc1c(-c2ccc(O[C@@H]3O[C@H](CO)[C@@H](O)[C@H]3O)c(O)c2)oc2ccccc2c1=O` [Example 6, 3′4′-dihydroxy-3-methoxy-flavone-4′-β-D-ribofuranoside], the Colour of colonies result in test [8] (No metal) is reported as “Diffuse yellow”; in test [8] (metal salt Al 500 mg/l), “Yellow”; in [8] (metal salt Ba 500 mg/l) it was “Yellow”; in test [8] (metal salt Bi 500 mg/l), “Rusty orange”; in [8] (metal salt Co 500 mg/l), “No growth”; in [8] (metal salt Fe 500 mg/l) it was “Brown”. Further, the Colour of colonies entry is reported as “Pale orange” in test [8] (metal salt Mn 500 mg/l), “Yellow” in [8] (metal salt Sn 500 mg/l), “Yellow” in test [8] (metal salt Sr 500 mg/l) and “No growth” in [8] (metal salt Zn 500 mg/l).

Consider `O=C1/C(=C/c2ccc(OC3OC(CO)C(O)C3O)c(O)c2)Oc2ccccc21` [Example 1.7, 3′,4′-Dihydroxyaurone-4′-β-D-ribofuranoside], for which, in test [2], the Colony appearance result is “pale brown colonies”.

As to `COc1c(-c2ccc(O[C@@H]3O[C@H](CO)[C@@H](O)[C@H]3O)c(O)c2)oc2ccccc2c1=O`, in test [9], the “Colour of E. coli colonies” value is listed as “bright yellow”. Further, the “Colour of Y. enterocolitica colonies” value in test [10] is “colourless”.

These data come from patent publication US7709223B2, “Method for detecting bacteria with chromogenic substrates for β-D-ribofuranosidase” (priority 2001, dated 2010).
